Measured values published in article PMC9915759, “Structural Basis for Self-Discrimination by Neoantigen-Specific TCRs” (Research Square, 2023).
Read-outs that look alike come from different tables or passages of the source.

Tested on: TCR 47BE7
Assay: IFNγ intracellular cytokine staining of tgTCR 47BE7 CD8^+ T cells stimulated with peptide
Format: cell-based, mouse
Settings: for EC50: tgTCR 47BE7 CD8^+ T cells, titrated peptide and αCD28, 6 hours, ICS
Procedure: Fig. 2 | Neoantigen-reactive CD8^+ T cells recognise cognate peptide in vitro and in vivo. a, Table detailing attributes of tumour-reactive T cell receptors (TCRs), including neoantigen-reactive (top) and tumour-associated antigen-reactive (TAA-reactive) (bottom) TCRs isolated upon vaccination. b, Neoantigen-reactive CD8^+ T cell responses were induced by vaccination; isolated tetramer^+ T cells were stimulated for 6 hours with (varying concentrations of) cognate peptide and αCD28 and subsequently analyzed via intracellular staining (ICS) flow cytometry for IFNγ expression. c, Transgenic (tg)TCR CD8^+ T cells were co-incubated with varying concentrations of cognate mutant (MT) peptide or wild type (WT) peptide (x-axis) and αCD28 for 6 hours; intracellular staining (ICS) was performed subsequently. Percentage of T cells expressing IFNγ of a parent CD3^+CD8^+ population is shown on y-axis, normalised to maximum IFNγ expression. MT peptide values are shown as clear circles, and WT as filled, black circles. […] TgTCR CD8^+ T cells expressing the indicated TCR were stimulated, as described in c, with titrated mutant (MT) or wild-type (WT) peptide and IFNγ production was measured by ICS. […] Cytokine production was measured by intracellular staining (ICS) flow cytometry (n=3/condition). […] Heatmap shown summarises the frequency of CD8^+tgTCR^+IFγ^+. f, C57BL/6 mice (n=16–26/group) were treated with Hsf2 neoantigen vaccine or PBS (mock) in accordance with timeline shown (top). tumour growth was monitored via external caliper measurement and plotted versus time since tumour inoculation (bottom). g, Tetramer staining on CD3^+ CD8^+ T cells isolated from tumour-infiltrating lymphocytes (TIL) or peripheral blood mononuclear cells (PBMCs) from mice vaccinated with each of the neoantigens listed, using same methodology as described in b. h, Schematic describing administration of ACT in vivo. […]
Fig. 4 | Structure of the pMHC-TCR ternary complex. a, Kinetics of TCR-47BE7 binding to immobilised H2-D^b/Hsf2 p.K72N as determined by biolayer interferometry. […]

Row | SMILES | EC50 (n=3, read-out: functional avidity, half-maximal IFNγ production (EC50)) | cytokine production on a per-cell basis at saturating peptide concentrations (MT versus WT peptide) | EC50 (95%CI NR, read-out: half-maximal IFNγ production (EC50))
1 | CC[C@H](C)[C@H](NC(=O)[C@H](Cc1c[nH]cn1)NC(=O)[C@@H](NC(=O)[C@@H](NC(=O)[C@H](CC(N)=O)NC(=O)[C@H](CCCNC(=N)N)NC(=O)[C@H](Cc1ccccc1)NC(=O)CNC(=O)[C@@H](N)Cc1ccc(O)cc1)C(C)C)C(C)C)C(=O)O [Hsf2 p.K72N68–76] | 5.61e-06 µM |  | 
2 | CC[C@H](C)[C@H](NC(=O)[C@H](Cc1c[nH]cn1)NC(=O)[C@@H](NC(=O)[C@@H](NC(=O)[C@H](CCCCN)NC(=O)[C@H](CCCNC(=N)N)NC(=O)[C@H](Cc1ccccc1)NC(=O)CNC(=O)[C@@H](N)Cc1ccc(O)cc1)C(C)C)C(C)C)C(=O)O [Hsf2_68–76] |  | partial agonist only | 8.7 µM
